Where two headings read alike, the source gives them in different places.
How the values were obtained:
[1] = molecular target: T1, OATP1B3 (Homo sapiens, UniProt Q9NPD5); assay: cell-based; conditions: 100 μM
T1 sequence (Q9NPD5 1-702): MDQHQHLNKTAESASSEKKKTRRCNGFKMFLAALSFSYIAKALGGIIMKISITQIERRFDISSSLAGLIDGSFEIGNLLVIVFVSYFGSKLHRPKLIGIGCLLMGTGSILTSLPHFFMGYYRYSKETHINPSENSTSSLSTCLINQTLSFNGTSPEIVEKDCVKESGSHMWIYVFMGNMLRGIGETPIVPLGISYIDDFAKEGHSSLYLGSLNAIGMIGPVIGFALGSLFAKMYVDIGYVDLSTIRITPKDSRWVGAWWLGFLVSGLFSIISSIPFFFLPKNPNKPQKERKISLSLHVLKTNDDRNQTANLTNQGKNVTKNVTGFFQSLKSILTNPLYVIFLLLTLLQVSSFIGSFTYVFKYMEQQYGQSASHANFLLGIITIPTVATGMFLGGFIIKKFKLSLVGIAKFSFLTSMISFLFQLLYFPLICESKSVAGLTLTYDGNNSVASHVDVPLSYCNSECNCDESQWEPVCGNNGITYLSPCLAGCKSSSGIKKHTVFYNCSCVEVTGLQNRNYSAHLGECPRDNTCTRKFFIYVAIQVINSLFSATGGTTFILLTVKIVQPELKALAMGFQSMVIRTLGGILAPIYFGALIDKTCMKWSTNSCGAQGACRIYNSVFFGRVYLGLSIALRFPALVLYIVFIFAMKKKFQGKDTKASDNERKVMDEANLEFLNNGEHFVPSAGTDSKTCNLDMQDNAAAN
Protocol: (§1) The OATP1B1, OATP1B3, and mock cells were cultured in the DMEM medium containing 10% fetal bovine serum, penicillin–streptomycin solution (100 U/mL and 0.1 mg/ml), and 0.5 mg/ml geneticin at 37°C in the presence of 5% CO2. The cells were seeded in a 24-well plate at a density of 4×10^5 cells/well and grown for 80–90% confluence. […] After washing the cells three times with transporter buffer at 4°C, the cells were lysed with liquid nitrogen. The lysates were precipitated with methanol and centrifuged at 12,000 rpm at 4°C for 5 min. The supernatant was analyzed by LC-MS/MS. Protein concentration was determined using the Pierce® BCA Protein Assay Kit. All experiments were performed in triplicate.
(§2) Phoenix WinNonlin® 7.1 (Pharsight Corporation, Mountain View, CA, United States) was used to calculate the pharmacokinetic parameters by the noncompartmental method. IC50 values were obtained by a computer-generated nonlinear least squares fit using GraphPad Prism 8.1 (GraphPad Software, San Diego, CA, United States). Statistical analysis was performed using SPSS ver. 22.0 (IBM, Chicago, IL, United States). The results are presented as mean ± S.D., unless otherwise stated. After testing for the homogeneity of variance, statistical analysis was performed with a one-way ANOVA followed by the LSD post hoc test or unpaired Student’s t-test. A probability (p) of less than 0.05, 0.01, and 0.001 was considered to be statistically significant, highly significant, and extremely significant, respectively.

[2] = molecular target: T2, OATP1B1 (Homo sapiens, UniProt Q9Y6L6); assay: cell-based; conditions: 100 μM
T2 sequence (Q9Y6L6 1-691): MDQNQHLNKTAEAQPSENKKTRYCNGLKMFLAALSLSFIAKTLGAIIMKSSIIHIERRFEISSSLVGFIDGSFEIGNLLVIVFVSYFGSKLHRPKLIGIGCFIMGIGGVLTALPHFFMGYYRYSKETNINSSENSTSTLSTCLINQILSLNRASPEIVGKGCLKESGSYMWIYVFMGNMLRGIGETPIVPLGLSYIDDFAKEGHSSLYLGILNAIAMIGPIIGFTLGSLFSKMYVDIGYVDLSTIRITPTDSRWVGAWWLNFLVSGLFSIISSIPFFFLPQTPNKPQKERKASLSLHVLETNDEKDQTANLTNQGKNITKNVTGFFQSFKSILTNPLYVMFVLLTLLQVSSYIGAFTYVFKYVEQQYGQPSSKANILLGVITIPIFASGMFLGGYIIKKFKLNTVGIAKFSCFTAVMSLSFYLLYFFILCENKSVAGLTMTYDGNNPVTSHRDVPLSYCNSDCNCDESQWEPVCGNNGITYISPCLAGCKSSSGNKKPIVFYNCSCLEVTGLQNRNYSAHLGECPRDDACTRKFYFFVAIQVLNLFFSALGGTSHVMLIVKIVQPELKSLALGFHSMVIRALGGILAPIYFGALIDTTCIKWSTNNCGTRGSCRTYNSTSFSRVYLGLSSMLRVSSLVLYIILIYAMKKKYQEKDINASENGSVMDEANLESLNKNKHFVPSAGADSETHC
Protocol: as §1, §2

[3] = design: method as in Tornio et al. (2014); conditions: ref Tornio et al. (2014); cited from earlier work
[4] = cited from earlier work
[5] = tested on: OATP1B1; conditions: ref Tamraz et al. (2013), cited from earlier work
[6] = for Imax,u, unbound steady-state plasma peak concentration: fu×I1
[7] = tested on: human primary hepatocytes; assay: Cytotoxicity (MTT, AST, LDH) in cryopreserved human hepatocytes; type: cell-based; conditions: 24 and 96 h incubation
Protocol: Cytotoxicity was determined with MTT assay in cryopreserved human hepatocytes. Thawing and plating of cryopreserved hepatocytes were carried out according to the manufacturer’s protocol. […] 11 μL of 5 mg/ml MTT was added to each well of the plate, and then the plate was incubated at 37°C for 3–4 h. After the medium was aspirated, 150 μL of DMSO was added to dissolve the formazan. The absorbance at 570 nm was measured and corrected for background absorption at 690 nm using a SpectraMax® i3 plate reader (Molecular Devices, Silicon Valley, CA, United States). AST and LDH levels in the medium of parallel processed plates were measured by commercially available assay kits. […] All experiments were performed in triplicate.

[8] = human; ref Ayalasomayajula et al., 2007; Itkonen et al., 2015; cited from earlier work
[9] = Plasma pharmacokinetic study in rats; conditions: for AUC0–12h: rat plasma
Protocol: For the plasma pharmacokinetic study, 16 rats were randomly assigned into four groups (n = 4, each group, groups I to IV) and received oral (p.o.) administrations as oral gavage of CP (27 mg/kg) or the same volume of vehicle control for 20 days. Then, the rats were made to fast overnight before dosing but with free access to water. On day 21, rats in group I were treated with a p.o. dose as oral gavage of CP at 27 mg/kg and a single intravenous (i.v.) dose of RSV at 5 mg/kg. Rats in group II were treated with a p.o. dose as oral gavage of vehicle control and a single i.v. dose of RSV at 5 mg/kg. Rats in group Ⅲ were treated with a p.o. dose as oral gavage of CP at 27 mg/kg and a p.o. dose as oral gavage of RSV at 5 mg/kg. Rats in group Ⅳ were treated with a p.o. dose as oral gavage of vehicle control and a p.o. dose as oral gavage of RSV at 5 mg/kg. Blood samples (0.15 ml) were collected at 0, 1, 2, 5, 15, 30, 60, 120, 180, 360, 480, 600, and 720 min after administration of the i.v. dose of the RSV group and at 0, 5, 30, 60, 120, 180, 360, 480, 600, and 720 min for the p.o. dose as oral gavage of the RSV group. After each sampling, a volume of 0.15 ml physiologic saline solutions was administered to sustain isotonic fluid balance. Plasma samples were harvested by using a centrifuge and then stored at −80°C until analysis by LC-MS/MS.
A Shimadzu LC-30AD liquid chromatography system (Shimadzu, Kyoto, Japan) and an API4000 triple quadruple tandem mass spectrometer (Applied Biosystems/Sciex, Framingham, MA, United States) coupled with an ESI source was used for the LC-MS/MS analysis of in vivo samples. The separation was carried out on an Agilent Extend C18 column (1.8 µm, 4.6 mm × 30 mm, Agilent Technologies). The mobile phase consisting of acetonitrile (A) and water (B: 1 mM ammonium acetate and 1% (V/V) formic acid). […] The flow rate was 1 ml/min and the gradient elution method was as follows: 0.01 min (10% A)-0.4 min (10% A), 0.8 min (95% A)-2.0 min (95% A), and 2.3 min (10% A)-2.5 min (stop).
as §2

[10] = substrate cerivastatin, read-out: IC50 OTAP1B1 (cerivastatin, CER, as substrate)
[11] = substrate estrone sulfate, read-out: IC50 OTAP1B1 (estrone sulfate, ES, as substrate)

CO[C@H]1/C=C/O[C@@]2(C)Oc3c(C)c(O)c4c(O)c(c(/C=N/N5CCN(C)CC5)c(O)c4c3C2=O)NC(=O)/C(C)=C\C=C\[C@H](C)[C@H](O)[C@@H](C)[C@@H](O)[C@@H](C)[C@H](OC(C)=O)[C@@H]1C [rifampin]
Inhibition of RSV uptake by OATP1B3 cells (positive control) [1]: significantly inhibited | Inhibition of RSV uptake by OATP1B1 cells (positive control) [2]: significantly inhibited

COC(=O)[C@H](c1ccccc1Cl)N1CCC2SC(=O)C=C2C1 (stereo partly drawn) [2-Oxo clopidogrel, 2-oxo clopidogrel]
fu, fraction unbound in human plasma [3]: 0.02 [Tornio et al. (2014)] | I1, peak plasma concentration at steady state ([4]; 300 mg CP, ref Kim et al. (2016)): 0.016 [Kim et al. (2016)] μM | IC50 [5, 10]: 8.18 µM | IC50 [5, 11]: 8.97 µM | I1, peak plasma concentration at steady state ([6]; 75 mg CP, calculated from I1 at 300 mg assuming linear pharmacokinetics): 0.004 µM | Imax,u, unbound steady-state plasma peak concentration ([6]; 75 mg CP): 0.00008 µM | Imax,u, unbound steady-state plasma peak concentration ([6]; 300 mg CP): 0.0003 µM

CC/C(=C(\c1ccccc1)c1ccc(OCCN(C)C)cc1)c1ccccc1 [tamoxifen]
Cytotoxicity (MTT) [7]: Dose-dependent cytotoxicity

CC(C)n1c(/C=C/C(O)CC(O)CC(=O)O)c(-c2ccc(F)cc2)c2ccccc21 (stereo not drawn) [fluvastatin]
Effect of concomitant CP on plasma concentration of the statin [8]: did not change

O=C(O)C[C@H](O)C[C@H](O)/C=C/c1c(C2CC2)nc2ccccc2c1-c1ccc(F)cc1 [pitavastatin]
Effect of concomitant CP on plasma concentration of the statin [8]: did not change

O=C(O)[C@H](c1ccccc1Cl)N1CCc2sccc2C1 [CPC, clopidogrel carboxylic acid]
fu, fraction unbound in human plasma [3]: 0.06 [Tornio et al. (2014)] | Elimination half-life ([4]; ref Sanofi-Aventis, 2011): 8 h | AUC0–12h ([9]; Group I: single i.v. RSV 5 mg/kg + multiple p.o. CP 27 mg/kg): 299,764 ± 153,504.1 ng×h/mL | AUC0–12h ([9]; Group III: single p.o. RSV 5 mg/kg + multiple p.o. CP 27 mg/kg): 230,181 ± 109,005.9 ng×h/mL | Plasma exposure ([9]; rats, at 12 h post-dose): remains high

O=C(O)[C@H]1O[C@@H](OC(=O)[C@H](c2ccccc2Cl)N2CCc3sccc3C2)[C@H](O)[C@@H](O)[C@@H]1O [Clopidogrel acyl glucuronide, clopidogrel acyl-β-D-glucuronide]
fu, fraction unbound in human plasma [3]: 0.1 [Tornio et al. (2014)] | I1, peak plasma concentration at steady state ([4]; 75 mg CP, ref Itkonen et al. (2015)): 1.72 [Itkonen et al. (2015)] μM | I1, peak plasma concentration at steady state ([4]; 300 mg CP, ref Itkonen et al. (2015)): 4.77 [Itkonen et al. (2015)] μM | IC50 [5, 10]: 10.9 µM | IC50 [5, 11]: 33.5 µM | Imax,u, unbound steady-state plasma peak concentration ([6]; 75 mg CP): 0.172 µM | Imax,u, unbound steady-state plasma peak concentration ([6]; 300 mg CP): 0.477 µM

Reference: PMC8504577, “Evaluation of a Clinically Relevant Drug–Drug Interaction Between Rosuvastatin and Clopidogrel and the Risk of Hepatotoxicity” (Frontiers in Pharmacology, 2021)
